One data set deals with HL-60. The note with it: HL-60 cell line; Du et al. 2005; read-out: IC50 (inhibitory concentration of 50%), tumor growth; cited from earlier work.
The subject of another data set is MCF-7. The note with it: MCF-7 cell line; Du et al. 2005; read-out: IC50 (inhibitory concentration of 50%), tumor growth; cited from earlier work.
For another data set, the system named is KG-1a cells. Particulars: 48 hours.
Another data set deals with APL cell line NB4. On the set-up: unit not given here. Particulars: APL studies, cited from earlier work.
Another data set has as its target T1, PML/RAR-α fusion protein (Homo sapiens, UniProt P10276+P29590).
T1 construct: host or cells: NB4 cells (endogenous t(15;17) fusion)
T1 sequence (P29590+P10276 with tags, fused parts or gaps): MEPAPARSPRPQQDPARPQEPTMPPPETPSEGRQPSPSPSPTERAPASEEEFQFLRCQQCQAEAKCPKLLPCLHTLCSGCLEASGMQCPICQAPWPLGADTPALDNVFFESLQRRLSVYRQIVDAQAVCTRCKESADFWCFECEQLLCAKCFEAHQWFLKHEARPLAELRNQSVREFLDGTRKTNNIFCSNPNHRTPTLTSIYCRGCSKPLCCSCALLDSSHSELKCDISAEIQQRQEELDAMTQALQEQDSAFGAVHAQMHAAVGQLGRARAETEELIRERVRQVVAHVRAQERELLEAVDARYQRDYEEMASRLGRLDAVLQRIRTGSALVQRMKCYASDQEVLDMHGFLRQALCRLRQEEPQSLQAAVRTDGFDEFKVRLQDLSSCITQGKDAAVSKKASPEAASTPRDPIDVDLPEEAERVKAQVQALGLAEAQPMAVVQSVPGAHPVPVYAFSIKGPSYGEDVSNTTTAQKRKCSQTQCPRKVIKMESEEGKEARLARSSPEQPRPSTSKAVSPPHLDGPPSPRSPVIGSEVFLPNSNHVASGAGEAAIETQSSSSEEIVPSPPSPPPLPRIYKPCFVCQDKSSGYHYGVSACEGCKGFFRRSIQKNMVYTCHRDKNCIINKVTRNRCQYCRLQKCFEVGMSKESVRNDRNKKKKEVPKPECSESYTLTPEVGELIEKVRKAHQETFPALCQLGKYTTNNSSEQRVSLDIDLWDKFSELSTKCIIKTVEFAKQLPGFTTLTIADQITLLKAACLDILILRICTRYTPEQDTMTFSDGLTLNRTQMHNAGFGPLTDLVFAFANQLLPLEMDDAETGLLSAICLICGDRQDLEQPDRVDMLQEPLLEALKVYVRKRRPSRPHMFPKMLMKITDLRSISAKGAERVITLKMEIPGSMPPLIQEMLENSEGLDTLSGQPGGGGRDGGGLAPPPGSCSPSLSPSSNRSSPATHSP
More on the design: unit not given here. The note with it: NB4 cells; cited from earlier work.

The mark [1] stands for this setting: thalidomide 5 mg/L, As2O3 4 μM, IL-2 200 IU/ml, alone or combined.
[2] abbreviates: As2O3 2 μM, with or without ascorbic acid 100 μM.
The mark [3] stands for this setting: As2O3 4 μM, with or without ascorbic acid 100 μM.

Like-named read-outs stand apart in the source and are kept apart here.

Here are results for two compounds from patent publication US20110256236A1 (priority 2010, published 2011).

Experimental for KG-1a cells: The KG-1a cells, which are an early phenotype of human acute myeloid leukemia (American Type Culture Collection, Manassas, Va.), were grown in complete growth medium [Iscove's Modified Dulbeco's Medium (American Type Culture Collection, Manassas, Va.)] supplemented with 20% fetal bovine serum (Sigma-Aldrich, UK) and 1% Penicillin-Streptomycin (GIBCO Invitrogen Corporation, Carlsbad, Calif.) at 37° C. in a humidified 5% CO2 incubator.
The KG-1a cells were cultured for 48 hours in 12-well tissue culture plates, each containing complete growth medium at a concentration of 2×10^6 cells 1 ml, and each well contained a total volume of two milliliters. Thalidomide (TOCRIS Bioscience, Ellisville, Mo.) was added at a concentration of 5 mg/L whether used alone or in combination with other chemotherapeutic agents. Interleukin-2 (Proleukin®, Aldesleuken for injection) (CHIRON Therapeutics, Emeryville, Calif.) was added at a concentration of 200 IU/ml whether used alone or in combination with thalidomide or arsenic trioxide. Arsenic trioxide (Sigma-Aldrich, Inc., St. Louis, Mo.) was added at concentrations of 2 μM and 4 μM with and without 100 μM of ascorbic acid in the first flow cytometry study, and at 4 μM in the rest of the studies either alone or combined with thalidomide and interleukin-2. A control culture containing neither thalidomide nor interleukin-2 nor arsenic trioxide was set up in conditions otherwise identical. All the control and treated cultures were set in duplicate and incubated for 48 hours at 37° C. in a humidified 5% CO2 incubator.
The detection of apoptosis and necrosis by Annex in V-FITC assay using flow cytometric analysis was carried out as described in the Annexin V-FITC Apoptosis Detection Kit (BioVision, Inc., Mountain View, Calif.) manual. Staurosporine (Sigma-Aldrich, Inc., St. Louis, Mo.) was used as a positive control at a concentration of 10 μM and was incubated only for 24 hours with the cells. Briefly, after the KG-1a cells were incubated for 48 hours, they were harvested by centrifugation at 1,300 RPM for five minutes. Cells were resuspended in 500 μl of 1× binding buffer. Then 5 μl of Annexin V-FITC and 5 μl of propidium iodide (PI) were added to all tubes (except the negative control which contained no staining and no treatment; for the Annexin V-FITC controls only the Annexin V-FITC was added; and for the Propidium Iodide control only PI was added). All tubes were incubated at room temperature for five minutes in the dark.
Results were subjected to one way ANOVA. Statistical significant differences between means was set at p<0.05.

In the case of `O=C1CCC(N2C(=O)c3ccccc3C2=O)C(=O)N1` (stereo not drawn) [Thalidomide, α-(N-phthalimido) glutarimide], the IC50 was 22.1 ± 2.15 µM in the data set with HL-60 and 18.4 ± 2.34 µM in the data set on MCF-7. The “% Early apoptosis” value with KG-1a cells (setting [1]) was 7.92%. Besides, the “% Late apoptosis” value in the data set on KG-1a cells (setting [1]) was determined as 49.385%; with KG-1a cells (thalidomide 5 mg/L, As2O3 4 μM, IL-2 200 IU/ml, alone or combined, listed as thalidomide), 49.39%. Also, the “% Necrosis” value in the data set with KG-1a cells (setting [1]) came out at 1.155%.

As for arsenic trioxide [As2O3], the “concentrations inducing partial differentiation” value with APL cell line NB4 (low concentrations) is given as 0.1-0.5. For the same compound, the concentrations inducing apoptosis in the data set on APL cell line NB4 (relatively high concentrations) is recorded as 0.5-2.0. For the same compound, the “concentrations inducing degradation of PML/RAR-α (and wild type PML)” value at PML/RAR-α fusion protein is 0.5-2.0. Moreover, in the data set on KG-1a cells (setting [2]), the “% Early apoptosis” value is given as 14.50%, the “% Late apoptosis” value stood at 6.88%, the “% Live Cells” value was 75.94% and the “% Necrotic Cells” value is 2.68%. For the same compound, in the data set with KG-1a cells (setting [3]), the “% Early apoptosis” value amounted to 20.87%, the “% Late apoptosis” value is listed as 8.31%, the “% Live Cells” value was found to be 69.56% and the “% Necrotic Cells” value stood at 1.26%. For the same compound, in the data set on KG-1a cells (setting [1]), the “% Early apoptosis” value is recorded as 10.095%, the “% Late apoptosis” value turned out to be 16.965%, the “% Necrosis” value is recorded as 0.59% and the “cytotoxic effect (in words)” value is on record as “modest cytotoxic effect”. Also, the “% Late apoptosis” value in the data set on KG-1a cells (thalidomide 5 mg/L, As2O3 4 μM, IL-2 200 IU/ml, alone or combined, listed as Arsenic trioxide) is reported as 16.97%.
